This is an account of results in paper PMC11241527, “Long-Chain Alkylthio Cyclodextrin Derivatives for Modulation of Quorum-Sensing-Based Bioluminescence in Aliivibrio fischeri Model System” (International Journal of Molecular Sciences, 2024).

Data set [1] relates to A. fischeri. The data set is described as follows: Bioluminescence inhibition assay in the Aliivibrio fischeri model system. It is filed as cell-based. As to conditions: for EC20: 20% inhibition of bioluminescence after 120 min exposure; for inhibition at 2000 µM: read-out: inhibition of bioluminescence; for inhibitory effect on bioluminescence, upper limit in any case: any tested concentration and time, not statistically significant. The protocol: The time- and concentration-dependent effect of native α- and β-CDs, their N,N,N-trimethyl-ammoniopropyl derivatives, and novel alkylthio derivatives were tested in a series of short-term (30–120 min) experiments at 0.008–10 mM concentration range. To differentiate between the quorum-quenching effect and the cytotoxic effect of the CDs, bioluminescence as well as cell viability (the population growth and the enzyme activity) were determined.
(§1) The bacterial strain A. fischeri (NRRL B-111 77) was cultured and maintained in the laboratory under axenic circumstances. The 16 h old (overnight) cell culture applied for the tests was prepared by inoculating 30 mL of Photobacterium medium with an ampoule of lyophilized bacteria. The culture was shaken in the dark at 160 rpm, 24 °C, to an optical density of 0.6 at 600 nm (OD600).
The tested CD molecules were suspended in sterile distilled water and sterilized in an autoclave. A dilution series was prepared from the stock solutions (suspensions), covering a 0.04–50 mM concentration range.
The experiments were carried out with overnight A. fischeri cell culture in 96-well microtiter plates with a total volume of 250 µL. Fifty microliters of the members of the fivefold dilution series made from stock solutions were added to the wells of a sterile, transparent, 96-well, round-bottomed Sarstedt microtiter plate in four replicates. Distilled water was used as a negative control in the same volume.
To ensure the validity of data and verify the sensitivity of the bacteria, a five-member CuSO4 dilution series (1.6 ppm, 8 ppm, 40 ppm, 200 ppm, and […]) was used as a positive control. After that, 200 μL of the diluted overnight culture was added to the wells, except for the blank samples, for which 200 μL of Photobacterium medium was added instead.
The bioluminescence intensity was measured with a Fluostar Optima microplate reader (BMG Labtech, Ortenberg, Germany; fluorescence detection limit > 30 amol/well ATP) after 30, 60, and 120 min of exposure. The evaluation of the results was carried out as described by Ujaczki et al. (2015).
The determination of the concentration–response relationship is a method employed in the field of environmental toxicology, with the objective of objectively assessing the effects of different chemicals. The effective concentration endpoints (EC20 and EC50 values) of the tests are uniformly used for the quantification and comparison of the effects of chemicals and environmental matrices.

The test system of data set [2] is A. fischeri. The data set is described as follows: Optical density measurement, population growth assay. It is filed as cell-based, Aliivibrio fischeri. As to conditions: for inhibition of population growth (optical density): within 30, 60 and 120 min, regardless of the concentration; for inhibition at 10000 µM: 10 mM; for inhibition at 2000 µM: 2 mM, read-out: inhibition of cell proliferation (population growth), maximum. The method, then:
as §1
The measurements were carried out as described by Molnár et al. (2021). The OD was measured after the incubation period, following the bioluminescence inhibition assay with DIALAB ELx800 ELISA Microplate Reader (Dialab GmbH, Wiener Neudorf, Austria) at the wavelength of 630 nm.

For data set [3], the system named is A. fischeri. The data set is described as follows: Cell viability, tetrazolium (MTT) reduction assay. It is filed as cell-based, Aliivibrio fischeri. The following applies: 120 min; for inhibition in the viability: 10 mM; for inhibitive effect on cell viability, maximum: 0.08 mM. The protocol:
The cell viability assay characterizing the activity of the hydrogen transport (the dehydrogenase enzyme activity) is based on the spectrophotometric measurement of the absorbance of a formazan product of the reduction in the tetrazolium salts.
The absorbance—which we determined after 120 min of exposure—is directly proportional to the metabolic activity of the cells.
To examine the potential influence of the CDs on the vitality of the bacteria, an enzyme activity assay was applied using 3-(4,5-dimethylthiazol-2-yl)-2,5-diphenyltetrazolium bromide (MTT).
Metabolically active cells reduce the […] MTT into a black formazan product, whose concentration is directly proportional to the activity of the viable cells. Following the population growth assay, the assay was performed in the same microplates by adding 30 μL of 4 mg/mL sterile MTT solution to each well.
The microtiter plate was then incubated for 30 min until color development.

A short description of data set [4]: Solubility in water at 25 °C. The format is physicochemical. The following applies: for solubility: read-out: WS, water solubility. The method, then: The characteristics: abbreviations (A), the molecular weight (MW), the solubility in water at 25 °C (WS), and the degree of substitution (DS) of the tested CDs are presented in Table 4 and Table 5.
The test system of data set [5] is A. fischeri. Set-up: method as in PMID 33321169. As to conditions: cited from earlier work.
Data set [6] can be described thus: Aggregation studies by dynamic light scattering (volume particle size distribution). It is filed as physicochemical. As to conditions: 1% aqueous solution, 25 °C. The method, then: Most CDs are prone to aggregation in aqueous solution due to their numerous hydroxyl moieties.
The aggregation behavior (nanoparticle formation) was studied by photon correlation spectroscopy (dynamic light scattering) using Malvern Zetasizer Nano ZS (Malvern Instruments, Malvern, UK) equipment at 25 °C using 1% aqueous solution.

Setting [7] is: Aliivibrio fischeri, 0.5 h, 30 min.
The mark [8] stands for this setting: Aliivibrio fischeri, 1 h, 60 min.
Setting [9] is: Aliivibrio fischeri, 2 h, 120 min.

Where two headings read alike, the source gives them in different places.

As to “N,N,N-Trimethylammoniopropyl-α-CD [QA-α-CD (2), reference compound]”, the 20% effect concentration (EC20) (as a rule, the concentration needed for an effect of 20%) in the data set with A. fischeri [1] is 3140 µM. In the data set with A. fischeri [1] (tested concentrations 0.08-10 mM, examined period 30-120 min), the “inhibition of bioluminescence (significance)” value is recorded as “no significant inhibition”. Besides, in the data set with A. fischeri [2], the “inhibition of population growth (optical density)” value (“inhibition … (optical density)” for short) is given as “up to 30%”. Also, the “inhibition in the viability” value with A. fischeri [3] is reported as 41%.
The compound “N,N,N-Trimethylammoniopropyl-6-monodeoxy-6-monodecanethiol-α-CD [QA-6S-C10-α-CD (4)]” gave a reduction of bioluminescence with A. fischeri [1] (1 mM, 120 min) of 69%. The same compound had an EC20 with A. fischeri [1] of 200 µM. The EC50 – broadly, the concentration that produces a half-maximal response – in the data set on A. fischeri [1] (50% inhibition of bioluminescence after 120 min exposure, read-out: EC50) worked out at 240 µM. For the same compound, the “inhibition … (optical density)” value in the data set on A. fischeri [2] is “up to 30%”. Moreover, in the data set on A. fischeri [3] (regardless of concentration), the “inhibition of the enzyme activity (cell viability)” value is given as 24–27%.
Turning to `CCCCCCCCCCCCSC[C@H]1O[C@@H]2O[C@H]3[C@H](O)[C@@H](O)[C@@H](O[C@H]4[C@H](O)[C@@H](O)[C@@H](O[C@H]5[C@H](O)[C@@H](O)[C@@H](O[C@H]6[C@H](O)[C@@H](O)[C@@H](O[C@H]7[C@H](O)[C@@H](O)[C@@H](O[C@H]1[C@H](O)[C@H]2O)O[C@@H]7CO)O[C@@H]6CO)O[C@@H]5CO)O[C@@H]4CO)O[C@@H]3CO` [6S-C12-α-CD (3), 6-monodeoxy-6-monododecanethiol-α-CD], the “decrease in bioluminescence intensity” value in the data set on A. fischeri [1] (0.4 mM, 120 min) was found to be 71%; in the data set with A. fischeri [1] (10 mM, 120 min) it was 79%. This compound showed a 20% effect concentration (EC20) in the data set with A. fischeri [1] of 60 µM. The compound also displayed a half-maximal effective concentration (EC50) in the data set with A. fischeri [1] (Aliivibrio fischeri, 2 h) of 160 µM. Further, in the data set on A. fischeri [1] (Aliivibrio fischeri, 2 h), the inhibition at 2000 µM was 85%. The inhibition at 10000 µM in the data set on A. fischeri [2] (setting [7]) is 50%; with A. fischeri [2] (setting [8]), 54%; in the data set on A. fischeri [2] (setting [9]) it was 59%. Also, in the data set on A. fischeri [3] (at 2 and 10 mM), the “decrease in cell viability, maximum” value was 40%. Besides, in data set [4], the solubility (as a rule, the dissolved amount per volume that the medium holds) was greater than 10000 µg/mL.
Regarding `OC[C@H]1O[C@@H]2O[C@H]3[C@H](O)[C@@H](O)[C@@H](O[C@H]4[C@H](O)[C@@H](O)[C@@H](O[C@H]5[C@H](O)[C@@H](O)[C@@H](O[C@H]6[C@H](O)[C@@H](O)[C@@H](O[C@H]7[C@H](O)[C@@H](O)[C@@H](O[C@H]8[C@H](O)[C@@H](O)[C@@H](O[C@H]1[C@H](O)[C@H]2O)O[C@@H]8CO)O[C@@H]7CO)O[C@@H]6CO)O[C@@H]5CO)O[C@@H]4CO)O[C@@H]3CO` [β-CD (5), Native β-CD, reference compound], in the data set with A. fischeri [1], the “inhibitory effect on bioluminescence, upper limit in any case” value is on record as no more than 35%. Also, the inhibition at 80 µM with A. fischeri [2] (Aliivibrio fischeri, 0.5 h, read-out: inhibition of population growth, maximum) is no more than 34%. In the data set on A. fischeri [3], the “inhibitive effect on cell viability, maximum” value is on record as 15%.
For the compound `CCCCCCCCCCCCSC[C@H]1O[C@@H]2O[C@H]3[C@H](O)[C@@H](O)[C@@H](O[C@H]4[C@H](O)[C@@H](O)[C@@H](O[C@H]5[C@H](O)[C@@H](O)[C@@H](O[C@H]6[C@H](O)[C@@H](O)[C@@H](O[C@H]7[C@H](O)[C@@H](O)[C@@H](O[C@H]8[C@H](O)[C@@H](O)[C@@H](O[C@H]1[C@H](O)[C@H]2O)O[C@@H]8CO)O[C@@H]7CO)O[C@@H]6CO)O[C@@H]5CO)O[C@@H]4CO)O[C@@H]3CO` [6S-C12-β-CD (7), 6-monodeoxy-6-monododecanethiol-β-CD], the EC20 in the data set on A. fischeri [1] is 90 µM. Moreover, the inhibition at 2000 µM came out at 77% in the data set with A. fischeri [1] (Aliivibrio fischeri, 0.5 h); 76% in the data set with A. fischeri [1] (Aliivibrio fischeri, 1 h); 70% in the data set on A. fischeri [1] (Aliivibrio fischeri, 2 h); 72% with A. fischeri [2] (setting [7]); 69% with A. fischeri [2] (setting [8]); 65% in the data set with A. fischeri [2] (setting [9]). In the data set with A. fischeri [1] (Aliivibrio fischeri, 2 h), this compound registered an EC50 of 760 µM. Besides, in the data set on A. fischeri [3] (2 mM), the “vitality-reducing effect (cell viability)” value amounted to 41%. Also, the solubility in data set [4] was greater than 10000 µg/mL.
Consider `OC[C@H]1O[C@@H]2O[C@H]3[C@H](O)[C@@H](O)[C@@H](O[C@H]4[C@H](O)[C@@H](O)[C@@H](O[C@H]5[C@H](O)[C@@H](O)[C@@H](O[C@H]6[C@H](O)[C@@H](O)[C@@H](O[C@H]7[C@H](O)[C@@H](O)[C@@H](O[C@H]8[C@H](O)[C@@H](O)[C@@H](O[C@H]9[C@H](O)[C@@H](O)[C@@H](O[C@H]1[C@H](O)[C@H]2O)O[C@@H]9CO)O[C@@H]8CO)O[C@@H]7CO)O[C@@H]6CO)O[C@@H]5CO)O[C@@H]4CO)O[C@@H]3CO` [γ-CD], for which the “quorum-quenching efficacy (reduction of bacterial bioluminescence)” value in the data set on A. fischeri [5] (previous study) was “ineffective”.
In the case of “Native α-CD [α-CD (1), reference compound]”, in the data set on A. fischeri [1], the “inhibition of bioluminescence (significance)” value is listed as “no significant inhibition” and the 20% effect concentration (EC20) came to 80 µM. In the data set on A. fischeri [2], the “inhibition … (optical density)” value is recorded as “up to 30%”. For the same compound, the “inhibition in the viability” value in the data set with A. fischeri [3] was found to be 29%. For the same compound, the inhibition of bioluminescence result in the data set with A. fischeri [5] (10 mM, 120 min exposure time) is “over 60%”.
On to “N,N,N-Trimethylammoniopropyl-β-CD [QA-β-CD (6), reference compound]”, for which, in the data set with A. fischeri [1], the “inhibitory effect on bioluminescence, upper limit in any case” value was no more than 35%. Moreover, in the data set on A. fischeri [2] (0.08 mM, 30 min of exposure), the “inhibition of population growth, maximum” value was no more than 34%. In the data set with A. fischeri [3], the “inhibitive effect on cell viability, maximum” value is 10%. Moreover, the “WS, water solubility” value in data set [4] is greater than 500000 µg/mL.
As to “N,N,N-Trimethylammoniopropyl-6-monodeoxy-6-monohexadecanethiol-β-CD [QA-6S-C16-β-CD (9)]”, in the data set on A. fischeri [1] (1 mM, time not stated), the “inhibitory effect (QS inhibition, bioluminescence)” value was 48%. In addition, the EC20 with A. fischeri [1] amounted to 170 µM. Also, the “inhibition of population growth” value with A. fischeri [2] (5 mM, 120 min) came to 38%. The “inhibition of cell viability” value with A. fischeri [3] (5 mM) is 35%. Besides, in data set [4], the “WS, water solubility” value was roughly 10000 µg/mL. In data set [6], the “average size of larger aggregates” value is given as 111 nm and the “size of larger aggregates with high polydispersity” value is 50–500 nm.
